Results from US8431591B2, “R(−)-2-methoxy-11-hydroxyaporphine and derivatives thereof” (The McLean Hospital Corporation, priority 2007, dated 2013).
Where two headings read alike, the source gives them in different places.

What was measured:
[1] = molecular target: dopamine D2 receptor (Rattus norvegicus, UniProt P61169); experiment: Radioligand competition assay, affinity at rat D2 receptors ([3H]nemonapride); type: binding
[2] = molecular target: dopamine D1 receptor (Rattus norvegicus, UniProt P18901); experiment: Radioligand competition assay, affinity at rat D1 receptors ([3H]SCH23390); type: binding; conditions: radioligand [3H]SCH23390
[3] = tested on: D2 receptor; conditions: Gao et al., J. Med. Chem. 33:1800 (1990); cited from earlier work
[4] = following a single dose; cited from earlier work

Sequence of dopamine D1 receptor (P18901 whole entry): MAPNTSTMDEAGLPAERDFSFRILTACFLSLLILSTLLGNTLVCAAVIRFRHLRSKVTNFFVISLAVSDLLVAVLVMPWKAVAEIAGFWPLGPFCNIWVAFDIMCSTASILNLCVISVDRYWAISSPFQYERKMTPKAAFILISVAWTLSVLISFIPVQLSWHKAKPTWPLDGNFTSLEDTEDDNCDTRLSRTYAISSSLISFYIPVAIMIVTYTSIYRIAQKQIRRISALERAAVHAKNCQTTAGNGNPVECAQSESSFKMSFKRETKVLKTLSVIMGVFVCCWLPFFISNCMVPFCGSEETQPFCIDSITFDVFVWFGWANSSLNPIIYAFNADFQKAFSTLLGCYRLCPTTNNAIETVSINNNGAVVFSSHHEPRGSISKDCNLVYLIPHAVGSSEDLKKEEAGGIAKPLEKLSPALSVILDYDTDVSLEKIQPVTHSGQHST
Sequence of dopamine D2 receptor (P61169 whole entry): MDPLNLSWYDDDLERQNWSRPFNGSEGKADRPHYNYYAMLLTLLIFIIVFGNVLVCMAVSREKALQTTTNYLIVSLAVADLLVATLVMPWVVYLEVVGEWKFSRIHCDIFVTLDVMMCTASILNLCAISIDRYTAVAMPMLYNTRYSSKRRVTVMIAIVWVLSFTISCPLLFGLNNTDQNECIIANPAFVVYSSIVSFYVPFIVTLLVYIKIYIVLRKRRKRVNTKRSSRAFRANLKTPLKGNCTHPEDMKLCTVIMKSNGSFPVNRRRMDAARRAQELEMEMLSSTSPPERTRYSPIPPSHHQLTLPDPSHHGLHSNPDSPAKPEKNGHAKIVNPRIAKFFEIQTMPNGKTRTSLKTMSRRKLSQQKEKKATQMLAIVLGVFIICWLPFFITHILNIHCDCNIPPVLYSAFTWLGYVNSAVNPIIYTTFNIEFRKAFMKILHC

SMILES | Ki [2] | D2 receptor affinity and selectivity (in words) [3] | also measured
COc1cc2c3c(c1)-c1c(O)cccc1CC3N(C)CC2 (stereo not drawn) [Compound 3, 2-Methoxy-11-hydroxyaporphine] | 46 ± 2.8 nM |  | Ki ([1]; rat receptors, radioligand [3H]nemonapride, read-out: Affinity at rat receptors, D2): 235 ± 32 nM
CCCN1CCc2cc(OC)cc3c2[C@H]1Cc1ccc(O)c(O)c1-3 [Compound 1c, R(−)-2-methoxy-N-n-propylnorapomorphine] |  | among the most potent and highly selective agonists for the D2 receptor | 
CN1CCc2cccc3c2[C@H]1Cc1ccc(O)c(O)c1-3 [apomorphine, R(−)-Apomorphine] |  |  | duration of effects [4]: 40 to 60 min; onset of action [4]: 5 to 15 min
CCCN1CCc2cccc3c2[C@H]1Cc1cccc(O)c1-3 [Compound 2, R(−)-11-hydroxy-N-n-propylnoraporphine] |  | even higher affinity and selectivity for D2 receptor than apomorphine | 
COc1cc2c3c(c1)-c1c(ccc(O)c1O)C[C@H]3N(C)CC2 [Compound 8] | 6450 nM |  | Ki [1]: 1.3 ± 0.4 nM
CCCN1CCc2cc(O)cc3c2[C@H]1Cc1ccc(O)c(O)c1-3 [R(−)-2-OH-NPA, R(−)-2-hydroxy-N-n-propylnorapomorphine] |  | among the most potent and highly selective agonists for the D2 receptor | 
